# Patent US12083084B2, “Method for enhancing energy production and metabolism in cells” (REPLICON HEALTH OY, priority 2013, dated 2024)
# Values joined by “and” are separate entries in the source; they are usually repeats but may differ in a detail not shown here. Identical values can stand only once. “Also recorded” adds a separate entry of the source.
# Legend:
# [1] = tested on: primary human hepatocytes; assay: Cellular ROS detection (DCFDA) in primary human hepatocytes; format: cell-based; conditions: for ROS production compared to 0 dose/control: donor four, High Medium, FIG. 5; for ROS compared to 0 dose/control (in words): moderate metabolic stress (1.5-2 h after change of medium)
# Experimental: (§1) Primary human hepatocytes were purchased from Celsis In Vitro Technologies (1450 South Rolling Road Baltimore, MD 21227, USA). […] According to the information provided by the Celsis, hepatocytes from each donor should have at least 70% viability and more than 5 million viable cells. The medium for the culture of hepatocytes was provided by Celsis. They were InVitroGRO CP (for plating) medium (Z99029) and InVitroGRO HI (for incubation) medium (Z99009). Antibiotics (Torpedo Antibiotics Mix, Z990007) were also from Celsis. The thaw, plating and culture of cells were carried out according to the instruction provided by the Celsis In Vitro Technologies.
# (§2) For the measurement of cell viability after treatment of test compound, CytoTox-One Homogeneous Membrane Integrity Assay kit (Promega, G7891) was used. The CytoTox-One Assay is a rapid fluorescent measure of the release of lactate dehydrogenase (LDH) from cells with a damaged membrane. The number of […] cells correlates to the fluorescence intensity determined by a fluorescence plate reader (Hidex Chameleon V multiplate reader, Hidex Oy, Turku, Finland) with excitation 544 nm and emission 590 nm. For the measurement of cellular reactive oxygen species (ROS), DCFDA Cellular ROS Detection Assay Kit from Abcam (ab113851) was used. Reactive oxygen species (ROS) assay kit (ab113851) uses the cell permeant reagent 2′,7′-dichlorofluorescein diacetate (DCFDA), a fluorogenic dye that measures hydroxyl, peroxyl and other ROS activity with the cell. The activity of ROS was measured by a fluorescence plate reader (Hidex) with excitation/emission wavelengths of 485 nm/535 nm.
# (§3) The culture of primary hepatocytes was carried out based on the instructions provided by Celsis. After thawing, the cells were suspended in InVitroGRO CP medium. Thereafter the viability of cells was determined using the Trypan Blue exclusion method. Then the concentration of cells was adjusted using InVitroGRO CP medium, so about 30000-35000 cells/100 μl/well can be seeded in collagen I coated 96 well plate (BD, 734-0248).
# (§4) After seeding, the cells were cultured overnight in the cell culture incubator (Sanyo MCO 18) at atmosphere of 95% air, 5% CO2 at 37° C. Thereafter, the culture medium for the cells was changed to InVitroGRO Hi (Hi Medium) containing test compound (D-glyceric acid calcium salt dehydrate) at the concentrations of 0, 0.2, 2 and 20 μg/ml (study 1, Table 1.1.1) and 0, 0.4, 2 and 10 μg/ml (study 2, Table 1.1.2).
# In study 3 also LGA and HPA were tested and compared to DGA (see FIGS. 11c and 11d) with same doses as in study 2.
# In studies 2-4 additional diet with 0.75 mM of palmitic acid (“fatty acid diet”) was added to Hi Medium. Hi Medium in itself contains ample amounts of glucose and fructose and other necessary ingredients for keeping viability of the cell culture at optimal level.
# (§5) After 24 h (in study 1) and 20 h (in studies 2-4) incubation medium was renewed. Second renewal of the incubation medium occurred at 48 h in study 1 and at 40 h in other studies. ROS and LDH were measured after 1.5-2 hours after last change of the medium, i.e. in a situation with moderate metabolic stress.
# The measurement of cellular reactive oxygen species (ROS) was carried out according to the instruction of Abcam (ab113851). At the end of treatment time point, culture medium was taken away for leaked LDH measurement and cells were washed with 100 μl/well PBS once. Thereafter 100 μl/well of DCDA mix was added and incubated for 45 min at 37° C. in the dark. Then cells were washed once with 1× buffer solution. The fluorescence signal was measured at an excitation wavelength of 485 nm and emission wavelength of 535 nm using the Hidex Chameleon V multiplate reader (Hidex Oy, Turku, Finland).
# For the LDH and ROS assays, individual values of each measurement were stored and average value of fluorescence signals of various repeats of each treatment at studied time point were calculated and compared. […]
# [2] = tested on: primary human hepatocytes; assay: Cell viability by LDH release (CytoTox-One) in primary human hepatocytes; format: cell-based
# Experimental: as §1, §2, §3, §4, §5
# The measurement of LDH from medium (leaked LDH) and from cell and medium (total LDH) was carried out according to the instruction provided by the Promega (G7891). The plate was incubated at an incubator to achieve a temperature of 22° C. Thereafter, equal volume of CytoTox-ONE Reagent to cell culture medium (100 μl) was added to each well and mix for 30 seconds. Then they were incubated for 10 min at 22° C., and then 50 μl of Stop Solution was added to each well. After gentle mixing, the fluorescence signal was measured at an excitation wavelength of 560 nm and emission wavelength of 590 nm using the Hidex Chameleon V multiplate reader (Hidex Oy, Turku, Finland).
# For the total LDH measurement, all the steps are same except a 2 μl of Lysis Solution (per 100 μl original volume) will be added to the each well to lyse the cells before CytoTox-ONE Reagents will be added.
# For the LDH and ROS assays, individual values of each measurement were stored and average value of fluorescence signals of various repeats of each treatment at studied time point were calculated and compared. […] Viability (LDH) measurements contained 4-6 repeats depending on the study. […]
# [3] = Plasma sample analyses on PYR, ALA, LAC and NO; format: in vivo, human
# Experimental: As mentioned above also plasma samples were collected from S1 and S9, at 0 h and 1 h both in 12 h and 4.5 day test, i.e. 16 observations were gathered with either DGAcs or zero control situations. Additionally in statin group (S10 and S11) 2×2 measurements were done. Altogether there were 20 observations and, thus 10 differences between control and DGAcs administration can be calculated. Pyruvate concentrations were measured using Pyruvate Assay Kit from Sigma (MAK071 Sigma). Alanine concentrations were measured using Sigma Alanine Assay Kit (MAK001). Lactate concentrations were measured using Sigma Lactate Assay Kit (MAK064). And finally nitric oxide (NO) concentrations were measured using OxiSelect™ In Vitro Nitric Oxide (Nitrite/Nitrate) Assay Kit from Nordic Biosite Oy.
# [4] = average of measurements 1-10, vs zero control
# [5] = healthy volunteer group only, S1 and S9
compound,measurement,setting,value
"O=C(O)[C@H](O)CO [DGA, D-glyceric acid]",ROS production compared to 0 dose/control,"[1]; 1.5 h after new medium (moderate metabolic stress), 1.4 μM",Significant efficacy
same,ROS production compared to 0 dose/control,"[1]; 1.5 h after new medium, 0.14 μM",no effect
same,ROS production compared to 0 dose/control,"[1]; 1.5 h after new medium, 14 μM (2 μg/ml)",Biggest ROS scavenging effect
same,decline of ROS compared to control,"[1]; donor one, Hi Medium+Palmitic acid, FIG. 11a",same decline
same,amount of ROSs decreased by,"[1]; primary human hepatocytes, metabolic stress situation",15-40%
same,ROS compared to 0 dose/control (in words),[1]; primary human hepatocytes,decreases ROS
same,"ROS scavenging in equimolar comparison against vitamin E, glutathione, vitamin C (and morin dehydrate)","[1]; study 4, donors alpha (FIG. 5) and (FIG. 6), 14 μM",superior or at least as good ROS scavenger; also recorded: superior antioxidant
same,viability compared to 0 dose,"[2]; donor alpha, 0.4 DGA dose, Hi Medium+palmitic acid, FIG. 10c",statistically significant decrease in viability; also recorded: decline is statistically significant
same,hepatocytes viability increased in some cases by,"[2]; donor alpha, FIG. 10c",40-60%
same,viability of cells increased on average by,[2]; primary human hepatocytes,5-10%
same,decline in NO,[3]; healthy individuals,13%
same,increase of plasma/blood pyruvate levels,"[3]; summary statement, humans, Example 2.3.3",20-25% and 25%
"O.O.O=C([O-])[C@H](O)CO.O=C([O-])[C@H](O)CO.[Ca+2] [DGAcs, D-glyceric acid, calcium salt dehydrate]",ROS compared to 0 dose/control (in words),[1]; primary human hepatocytes,decrease ROS levels significantly; also recorded: reduced ROS
same,viability compared to 0 dose (in words),"[2]; primary human hepatocytes, standard treatment, moderate metabolic stress",modestly increase the viability
same,increase of plasma pyruvate,"[3]; S1 and S9, 1 hour after administering 75 000 mg of glucose",~20%
same,decline in NO,"[3]; all measurements, vs control",approximately 10%
same,"Average Change of the Concentration, plasma Alanine",[3]; [4],3.5%
same,"Average Change of the Concentration, plasma Nitric Oxide",[3]; [4],−9.9%
same,"Average Change of the Concentration, plasma Pyruvate",[3]; [4],25.9%
same,"Average Change of the Concentration, plasma Lactate","[3]; average of measurements, vs zero control",−31.9%
same,"Average Change of the Concentration, plasma Nitric Oxide (BMI < 25)","[3]; average, subjects with BMI < 25, vs zero control",−13.4%
same,decrease of plasma lactate,[3]; [5],~38%
same,increase of plasma pyruvate,[3]; [5],approximately 25%
same,decrease of plasma/blood lactate,"[3]; summary statement, humans, compared to control, Example 2.3.3",31.9% and 30%
